Target: mGlyT-1b (Mus musculus (Mouse), UniProt P28571)
Experiment: Glycine Uptake Inhibition Assay (mGlyT-1b)
Type: cell-based
Details: [3H]-glycine uptake in Flp-in-CHO cells stably transfected with mGlyT1b cDNA; 20 min preincubation at 22° C.
Description: DMEM complete medium: Nutrient mixture F-12 (Gibco Life-technologies), fetal bovine serum (FBS) 5%, (Gibco life technologies), Penicillin/Streptomycin 1% (Gibco life technologies), Hygromycin 0.6 mg/ml (Gibco life technologies), Glutamine 1 mM Gibco life technologies)
Uptake buffer (UB): 150 mM NaCl, 10 mM Hepes-Tris, pH 7.4, 1 mM CaCl2, 2.5 mM KCl, 2.5 mM MgSO4, 10 mM (+) D-glucose.
Flp-in™-CHO (Invitrogen Cat no R758-07) cells stably transfected with mGlyT1b cDNA.
Glycine Uptake Inhibition Assay (mGlyT-1b)
On day 1 mammalian cells, (Flp-in™-CHO), transfected with mGlyT-1b cDNA, were plated at the density of 40,000 cells/well in complete F-12 medium, without hygromycin in 96-well culture plates. On day 2, the medium was aspirated and the cells were washed twice with uptake buffer (UB). The cells were then incubated for 20 min at 22° C. with either (i) no potential competitor, (ii) 10 mM non-radioactive glycine, (iii) a concentration of a potential inhibitor. A range of concentrations of the potential inhibitor was used to generate data for calculating the concentration of inhibitor resulting in 50% of the effect (e.g. IC50, the concentration of the competitor inhibiting glycine uptake of 50%). A solution was then immediately added containing [^3H]-glycine 60 nM (11-16 Ci/mmol) and 25 μM non-radioactive glycine. The plates were incubated with gentle shaking and the reaction was stopped by aspiration of the mixture and washing (three times) with ice-cold UB. The cells were lysed with scintillation liquid, shaken 3 hours and the radioactivity in the cells was counted using a scintillation counter.

mGlyT-1b, sequence (P28571 other isoform, or with tags, fused parts or gaps isoform P28571-2): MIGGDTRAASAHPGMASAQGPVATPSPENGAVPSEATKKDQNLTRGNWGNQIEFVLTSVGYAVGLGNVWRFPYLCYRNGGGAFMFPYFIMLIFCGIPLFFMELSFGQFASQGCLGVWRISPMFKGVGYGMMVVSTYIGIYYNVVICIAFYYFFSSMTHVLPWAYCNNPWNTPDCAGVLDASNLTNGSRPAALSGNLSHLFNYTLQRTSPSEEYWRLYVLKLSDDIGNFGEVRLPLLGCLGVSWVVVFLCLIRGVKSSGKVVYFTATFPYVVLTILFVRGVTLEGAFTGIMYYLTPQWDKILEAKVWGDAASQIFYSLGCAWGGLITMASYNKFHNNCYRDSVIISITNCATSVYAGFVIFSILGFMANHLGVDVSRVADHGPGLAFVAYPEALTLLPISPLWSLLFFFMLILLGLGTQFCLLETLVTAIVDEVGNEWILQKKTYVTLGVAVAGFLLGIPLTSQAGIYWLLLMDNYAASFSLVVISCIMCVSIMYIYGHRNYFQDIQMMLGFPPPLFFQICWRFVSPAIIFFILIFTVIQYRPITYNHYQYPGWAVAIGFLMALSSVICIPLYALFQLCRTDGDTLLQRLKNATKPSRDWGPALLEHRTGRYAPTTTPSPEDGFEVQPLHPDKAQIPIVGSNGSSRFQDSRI

`CCc1cc(C(F)(F)F)cc(OC)c1C(=O)N[C@@H]1COCC[C@H]1N1CCCC1` (racemic) [Example 24, 2-Ethyl-6-methoxy-N-((3SR,4RS)-4-pyrrolidin-1-yl-tetrahydro-pyran-3-yl)-4-trifluoro-methyl-benzamide] gave an IC50 of 64.1 nM.
For `COc1cc(C(F)(F)F)cc(C)c1C(=O)N[C@H]1COCC[C@@H]1N1CCCC1` [Example 53, (+)-2-Methoxy-6-methyl-N-(4-pyrrolidin-1-yl-tetrahydro-pyran-3-yl)-4-trifluoromethyl-benzamide], the IC50 was 78.2 nM.
In the case of `COc1cc(C(F)(F)F)cc(C)c1C(=O)N[C@@H]1COCC[C@H]1N1CCCC1` [Example 54], the IC50 is reported as 33.8 nM.
`Cc1cc(C(F)(F)F)cc(C(F)(F)F)c1C(=O)N[C@@H]1COCC[C@H]1N1CCCC1` (racemic) [Example 10, 2-Methyl-N-((3SR,4RS)-4-pyrrolidin-1-yl-tetrahydro-pyran-3-yl)-4,6-bis-trifluoromethyl-benzamide] showed an IC50 of 41.2 nM.
`O=C(N[C@@H]1COCC[C@H]1NCC1CC1)c1ccc(C(F)(F)F)cc1C1CC1` (racemic) [Example 18, Cyclopropyl-N-[(3SR,4RS)-4-(cyclopropyl-methyl-amino)-tetrahydro-pyran-3-yl]-4-trifluoro-methylbenzamide] showed an IC50 of 126 nM.
`O=C(N[C@@H]1COCC[C@H]1N1CCCCC1)c1ccc(C(F)(F)F)cc1C1CC1` (racemic) [Example 19, 2-Cyclopropyl-N-((3SR,4RS)-4-piperidin-1-yl-tetrahydro-pyran-3-yl)-4-trifluoro-methylbenzamide] was tested, and the IC50 was 81.5 nM.
For `COc1cc(C(F)(F)F)cc(SC)c1C(=O)N[C@@H]1COCC[C@H]1NC(C)C1CC1` (mixture of isomers) [Example 31, N-[(3SR,4RS)-4-(1-Cyclopropyl-ethylamino)-tetrahydro-pyran-3-yl]-2-methoxy-6-methylsulfanyl-4-trifluoro-methyl-benzamide], the IC50 was 276 nM.
`COc1cc(C(F)(F)F)cc(SC)c1C(=O)N[C@@H]1CCOC[C@@H]1N1CCCC1` (relative stereo) [Example 63, cis-2-Methoxy-6-methylsulfanyl-N-(3-pyrrolidin-1-yl-tetrahydro-pyran-4-yl)-4-trifluoromethyl-benzamide] gave an IC50 of 189 nM.
With `CC(C)N[C@@H]1CCOC[C@H]1NC(=O)c1ccc(C(F)(F)F)cc1C1CC1` (racemic) [Example 16, Cyclopropyl-N-((3SR,4RS)-4-isopropylamino-tetrahydro-pyran-3-yl)-4-trifluoro-methylbenzamide] the IC50 was 296 nM.
With `O=C(N[C@@H]1COCC[C@H]1NC1CCCCC1)c1ccc(C(F)(F)F)cc1C1CC1` [Example 49] the IC50 was 340 nM.
Compound `COc1cc(C(F)(F)F)cc(SC)c1C(=O)N[C@@H]1COCC[C@H]1NC1(C)CCCCC1` (racemic) [Example 25, 2-Methoxy-N-[(3SR,4RS)-4-(1-methyl-cyclohexyl-amino)-tetrahydro-pyran-3-yl]-6-methyl-sulfanyl-4-trifluoromethyl-benzamide] has an IC50 of 278 nM.
Work on `CSc1cc(C(F)(F)F)cc(C(F)(F)F)c1C(=O)N[C@@H]1COCC[C@H]1N1CCCC1` [Example 42, (−)-2-Methylsulfanyl-N-trans-(4-pyrrolidin-1-yl-tetrahydro-pyran-3-yl)-4,6-bis-trifluoromethyl-benzamide] yielded an IC50 of 27 nM.
With `COc1cc(C(F)(F)F)cc(SC)c1C(=O)N[C@@H]1COCC[C@H]1N1C[C@H]2C[C@H]2C1` [Example 34, N-[(3S,4R)-4-(3-Aza-bicyclo[3.1.0]hex-3-yl)-tetra-hydro-pyran-3-yl]-2-methoxy-6-methylsulfanyl-4-trifluoromethyl-benzamide] the IC50 was 110 nM.
`CCc1cc(C(F)(F)F)cc(OC)c1C(=O)N[C@@H]1COCC[C@H]1N1CCCC1` [Example 56, (−)-2-Ethyl-6-methoxy-N-(4-pyrrolidin-1-yl-tetrahydro-pyran-3-yl)-4-trifluoro-methyl-benzamide] was tested, and the IC50 was 15.5 nM.

From US8524909B2, “Tetrahydro-pyran derivatives” (Hoffmann-La Roche Inc., priority 2010, dated 2013)
